Results: the supplement of paper PMC10307832

What was measured:
Test in all cases: relative viability (nuclei count vs DMSO), 5 days (fraction); higher = more cells survive
Sunitinib = compound: CCN(CC)CCNC(=O)c1c(C)[nH]c(/C=C2\C(=O)Nc3ccc(F)cc32)c1C [Sunitinib]
Procedure, shortened: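 Lung cancer cell lines in 1536-well plates were exposed by pinning to five library-drug doses (not always all listed) √10 apart, following an overnight hold at 37 °C. MetaXpress counted Hoechst-stained nuclei from 4× images taken after 5 days without medium change. Viability is the median ratio of treated-well to vehicle-well nuclei across plates. Plates required control CV below 25% and at least one doubling.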

Sunitinib + Trametinib = compound: CCN(CC)CCNC(=O)c1c(C)[nH]c(/C=C2\C(=O)Nc3ccc(F)cc32)c1C [Sunitinib] + CC(=O)Nc1cccc(-n2c(=O)n(C3CC3)c(=O)c3c(Nc4ccc(I)cc4F)n(C)c(=O)c(C)c32)c1 [Trametinib] (partner 0.02 µM)
Procedure, shortened: (§1)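 A single step with final 0.05% Triton X-100, 1% formaldehyde and 1 ug/ml Hoechst fixed the cells and stained nuclei 5 days after treatment. Lung cancer cell lines in 1536-well plates had been treated by pin tool the day after seeding with one drug alone or a fixed anchor-drug dose plus five library-drug doses (not always all listed) in √10 steps, and nuclei were counted on 4× images. Relative viability is the ratio of nuclei in treated wells to nuclei in vehicle wells, taken as the median of duplicate plates.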

Sunitinib + Tozasertib = compound: CCN(CC)CCNC(=O)c1c(C)[nH]c(/C=C2\C(=O)Nc3ccc(F)cc32)c1C [Sunitinib] + Cc1cc(Nc2cc(N3CCN(C)CC3)nc(Sc3ccc(NC(=O)C4CC4)cc3)n2)n[nH]1 [Tozasertib] (partner 0.1 µM)
Procedure, shortened: as §1

Sunitinib + AZD7762 = compound: CCN(CC)CCNC(=O)c1c(C)[nH]c(/C=C2\C(=O)Nc3ccc(F)cc32)c1C [Sunitinib] + NC(=O)Nc1cc(-c2cccc(F)c2)sc1C(=O)N[C@H]1CCCNC1 [AZD7762] (partner 0.2 µM)
Procedure, shortened: as §1

| Cell Line | relative viability (Sunitinib; 0.02 µM) | relative viability (Sunitinib; 0.06325 µM) | relative viability (Sunitinib; 0.2 µM) | relative viability (Sunitinib; 0.6325 µM) | relative viability (Sunitinib; 2 µM) | relative viability (Sunitinib + Trametinib; first compound 0.02 µM) | relative viability (Sunitinib + Trametinib; first compound 0.06325 µM) | relative viability (Sunitinib + Trametinib; first compound 0.2 µM) | relative viability (Sunitinib + Trametinib; first compound 0.6325 µM) | relative viability (Sunitinib + Trametinib; first compound 2 µM) | relative viability (Sunitinib + Tozasertib; first compound 0.02 µM) | relative viability (Sunitinib + Tozasertib; first compound 0.06325 µM) | relative viability (Sunitinib + Tozasertib; first compound 0.2 µM) | relative viability (Sunitinib + Tozasertib; first compound 0.6325 µM) | relative viability (Sunitinib + Tozasertib; first compound 2 µM) | relative viability (Sunitinib + AZD7762; first compound 0.02 µM) | relative viability (Sunitinib + AZD7762; first compound 0.06325 µM) | relative viability (Sunitinib + AZD7762; first compound 0.2 µM) | relative viability (Sunitinib + AZD7762; first compound 0.6325 µM) | relative viability (Sunitinib + AZD7762; first compound 2 µM) |
| --- | --- | --- | --- | --- | --- | --- | --- | --- | --- | --- | --- | --- | --- | --- | --- | --- | --- | --- | --- | --- |
| NCI-H1944 | 0.914 | 1.09 | 1.15 | 1.05 | 1.1 | 0.401 | 0.423 | 0.457 | 0.437 | 0.43 | 0.229 | 0.283 | 0.283 | 0.255 | 0.258 | 0.435 | 0.481 | 0.656 | 0.63 | 0.506 |
| EMC-BAC-2 | 0.935 | 1.11 | 1.18 | 1.01 | 1.07 | 0.868 | 0.932 | 0.966 | 0.99 | 1.12 | 0.264 | 0.297 | 0.308 | 0.289 | 0.332 | 1.08 | 1.24 | 1.22 | 1.27 | 1.2 |
| NCI-H3122 | 0.986 | 1.05 | 0.996 | 1.01 | – | 0.289 | 0.287 | 0.231 | 0.233 | 0.299 | 0.429 | 0.475 | 0.539 | 0.433 | 0.567 | 0.933 | 1.08 | 1.01 | 0.999 | 1.01 |
| EPLC-272H | 0.841 | 1.07 | 0.939 | 0.98 | 0.795 | 0.253 | 0.271 | 0.287 | 0.283 | 0.288 | 0.382 | 0.333 | 0.285 | 0.196 | 0.318 | 0.26 | 0.298 | 0.301 | 0.175 | 0.229 |
| LU99A | 0.84 | 1.1 | 1.04 | 0.938 | 0.901 | 0.477 | 0.562 | 0.554 | 0.552 | 0.424 | 0.296 | 0.285 | 0.267 | 0.273 | 0.273 | 0.334 | 0.311 | 0.343 | 0.325 | 0.368 |
| LXF-289 | 0.949 | 0.986 | 1.04 | 1.02 | 1.01 | 0.621 | 0.714 | 0.679 | 0.728 | 0.689 | 0.199 | 0.182 | 0.191 | 0.203 | 0.269 | 1.08 | 1.16 | 1.14 | 1.19 | 1.08 |
| NCI-H1395 | 1.02 | 1.01 | 0.925 | 0.991 | 0.945 | 0.92 | – | 1.22 | 0.988 | 0.99 | 0.751 | 0.72 | 0.696 | 0.846 | 0.779 | 0.422 | 0.431 | 0.413 | 0.418 | 0.421 |
| NCI-H650 | 0.906 | 1.1 | 1.01 | 1.03 | 1.08 | 0.917 | 1.04 | 1.16 | 0.988 | 1.01 | 0.697 | 0.831 | 0.771 | 0.801 | 0.745 | 0.882 | 1.15 | 0.945 | 1.1 | 0.944 |
| 201T | 0.938 | 0.999 | 1.02 | 0.989 | 0.987 | 0.704 | 0.75 | 0.739 | 0.717 | 0.697 | 0.918 | 0.948 | 1.1 | – | 0.88 | 0.544 | 0.705 | 0.688 | 0.664 | 0.588 |
| NCI-H2170 | 0.909 | 0.993 | 1.05 | 0.953 | 0.959 | 0.905 | 0.915 | 1.05 | 0.927 | 0.921 | 0.771 | 0.961 | 0.715 | 0.808 | 0.838 | 0.797 | 0.876 | 0.955 | 0.87 | 0.772 |
| NCI-H460 | – | – | 1.05 | 0.995 | 1.08 | 0.104 | 0.185 | 0.226 | 0.287 | 0.191 | 0.427 | 0.206 | 0.421 | 0.292 | 0.104 | 0.653 | 0.592 | 0.615 | 0.659 | 0.568 |
| NCI-H1755 | – | – | 1.04 | 1.03 | 1.05 | 0.763 | 0.768 | 0.92 | 0.736 | 0.767 | 0.561 | 0.529 | 0.752 | 0.593 | 0.569 | 0.414 | 0.478 | 0.53 | 0.408 | 0.421 |
| NCI-H1975 | 0.911 | – | 1.06 | 0.963 | 0.855 | 0.322 | 0.361 | 0.33 | 0.421 | 0.316 | 0.705 | 0.67 | 0.717 | 0.318 | 0.186 | 0.748 | 0.679 | 0.723 | 0.705 | 0.579 |
| NCI-H23 | 0.849 | 1.15 | 1.07 | 1.17 | 0.938 | 0.345 | 0.348 | 0.334 | 0.391 | 0.351 | – | 0.37 | 0.499 | 0.341 | 0.264 | 0.287 | 0.281 | 0.36 | 0.226 | 0.241 |
| NCI-H2405 | 1.01 | 1.06 | 1.05 | 1.07 | 1.01 | 0.59 | 0.582 | 0.662 | 0.672 | 0.628 | 0.757 | 0.794 | 0.811 | 0.761 | 0.809 | 0.703 | 0.759 | 0.8 | 0.878 | 0.648 |
| PC-3 [JPC-3] | 1.12 | 1.05 | 0.981 | 1.02 | 1.02 | 0.754 | 0.715 | 0.667 | 0.772 | 0.59 | 0.912 | 0.909 | 0.954 | 0.936 | 0.867 | 0.844 | 0.79 | 0.845 | 0.827 | 0.865 |
| NCI-H727 | 0.942 | 1.17 | 1.23 | 1.09 | 0.859 | 0.409 | 0.412 | 0.412 | 0.396 | 0.367 | 0.603 | 0.686 | 0.565 | 0.658 | 0.529 | 0.652 | 0.575 | 0.554 | 0.612 | 0.618 |
| EKVX | 0.974 | 1.01 | 1.14 | 1.12 | 1 | 0.314 | 0.357 | 0.412 | 0.345 | 0.298 | 0.411 | 0.39 | 0.476 | 0.459 | 0.366 | 0.755 | 0.783 | 0.735 | 0.688 | 0.716 |
| RERF-LC-KJ | 0.956 | 1.06 | 1.08 | 0.992 | – | 0.903 | 0.854 | 0.953 | 0.87 | 0.86 | 0.508 | 0.487 | 0.547 | 0.47 | 0.541 | 0.959 | 1.05 | 1.04 | 0.932 | 1 |
| NCI-H1355 | 0.962 | 1.07 | 1.12 | 1.02 | 1.05 | 0.44 | 0.438 | 0.567 | 0.437 | 0.376 | 0.529 | 0.561 | 0.601 | 0.594 | 0.406 | 0.764 | 0.845 | 0.859 | 0.767 | 0.689 |
| ChaGo-K-1 | 0.987 | 1.01 | 1.04 | 1.06 | 1.04 | 0.814 | 0.919 | 0.977 | 0.889 | 0.888 | 0.211 | 0.209 | 0.209 | 0.237 | 0.191 | 0.892 | 0.885 | 0.984 | 0.915 | 0.88 |
| LK-2 | 0.936 | 1.02 | 1.22 | 0.905 | 1.01 | 0.498 | 0.809 | 0.858 | 0.747 | 0.964 | 0.177 | 0.196 | 0.167 | 0.167 | 0.188 | 0.35 | 0.571 | 0.352 | 0.414 | 0.443 |
| NCI-H2085 | 0.999 | 1.04 | 1.01 | 1.03 | 1.04 | 0.5 | 0.515 | 0.515 | 0.634 | 0.71 | 0.863 | 0.835 | 1.02 | 0.747 | 0.605 | 0.965 | 0.976 | 1.12 | 1.07 | 1 |
| NCI-H358 | 0.875 | 0.97 | 1.1 | 0.897 | 0.67 | 0.137 | 0.143 | 0.138 | 0.127 | 0.14 | 0.114 | 0.0928 | 0.123 | 0.103 | 0.109 | 0.59 | 0.596 | 0.637 | 0.427 | 0.449 |
| NCI-H1648 | 0.767 | – | 1.15 | 1.13 | 1.17 | 0.502 | 0.529 | 0.524 | 0.445 | 0.499 | – | 0.477 | 0.482 | 0.596 | 0.667 | 0.702 | 0.814 | 0.694 | 0.715 | 0.828 |
| LCLC-97TM1 | 0.968 | 1.14 | 1.01 | 1.02 | 1.09 | 0.197 | 0.215 | 0.206 | 0.207 | 0.205 | 0.202 | 0.214 | 0.268 | 0.195 | 0.236 | 0.265 | 0.163 | 0.234 | 0.224 | 0.288 |
| NCI-H647 | 0.991 | 1.14 | 1.03 | 0.989 | 0.956 | 0.367 | 0.479 | 0.547 | 0.426 | 0.408 | 0.344 | 0.294 | 0.262 | 0.345 | 0.309 | 0.482 | 0.48 | 0.546 | 0.642 | 0.469 |
